Data taken from ChEMBL document CHEMBL1201862, “PubChem BioAssay data set” (2004).
The source made the active and inactive calls.

Tests used:
[1] = P. falciparum Dd2 growth inhibitors, dose response, SYBR Green, cherry-picked samples (AID 1159567); format: functional, cell-based
[2] = molecular target: T1, Microphthalmia-associated transcription factor (Homo sapiens, UniProt O75030); test: reducers of TRPM1 reporter luminescence, concentration series – cell-based, SK-MEL-5, cherry-picked, set 3, MITF inhibitor project, dose response (AID 493073); format: functional;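 also: SK-MEL-5 melanoma cells with luciferase driven by the MITF target TRPM1 promoter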
T1 sequence (O75030 whole entry): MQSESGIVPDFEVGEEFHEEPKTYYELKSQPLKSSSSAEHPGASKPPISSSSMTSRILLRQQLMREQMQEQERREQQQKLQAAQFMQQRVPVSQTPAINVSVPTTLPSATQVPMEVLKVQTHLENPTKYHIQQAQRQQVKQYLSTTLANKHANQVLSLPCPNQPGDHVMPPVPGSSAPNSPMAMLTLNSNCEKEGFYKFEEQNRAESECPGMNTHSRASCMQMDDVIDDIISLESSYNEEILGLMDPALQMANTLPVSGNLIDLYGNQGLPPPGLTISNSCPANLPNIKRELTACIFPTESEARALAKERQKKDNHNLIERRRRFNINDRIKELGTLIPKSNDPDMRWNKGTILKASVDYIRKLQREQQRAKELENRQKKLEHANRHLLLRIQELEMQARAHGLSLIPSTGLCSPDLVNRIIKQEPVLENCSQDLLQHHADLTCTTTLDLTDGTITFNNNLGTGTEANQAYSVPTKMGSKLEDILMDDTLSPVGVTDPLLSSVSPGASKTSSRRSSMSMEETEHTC

[3] = reduction of Shn3 3'UTR-driven luciferase in osteoblasts – cell-based, Clone20 osteoblasts, firefly luciferase, cherry-picked, dose response (AID 624132); format: functional;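 also: firefly luciferase luminescence from reporter carrying the Shn3 3'UTR in osteoblasts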
[4] = loss of viability in HepG2 cells – cell-based, CellTiter-Glo, cherry-picked, cytotoxicity control for Shn3 inhibitor project, dose response (AID 624134); format: functional
[5] = non-specific 3'UTR reporter inhibition in Clone20-Shn3RL – cell-based, Renilla luciferase, cherry-picked, counter-screen for Shn3 inhibitor project, dose response (AID 624133); format: functional
[6] = Luminescence Cell-Based Dose Confirmation HTS to Identify Activators of 5'UTR Stem-Loop Driven Alpha-Synuclein mRNA Translation in H4 Neuroglioblastoma Cells. [Related pubchem assays: 1829 (Project Summary), 1814 (Primary HTS)]; format: functional
[7] = Luminescence Cell-Based Dose Response HTS to Identify Activators of Luciferase Translation or Activity in H4 […] Cells. [Related pubchem assays: 1829 (Project Summary), 1814 (Primary HTS)]; format: functional
H4 = test: Luminescence Cell-Based Dose Response HTS to Identify Activators of 5'UTR Stem-Loop Driven Prion Protein mRNA Translation in H4 Neuroglioblastoma Cells. [Related pubchem assays: 1829 (Project Summary), 1814 (Primary HTS)]; format: functional; settings: Homo sapiens
[8] = molecular target: Glyceraldehyde-3-phosphate dehydrogenase (Homo sapiens, UniProt P04406)
Sequence of Glyceraldehyde-3-phosphate dehydrogenase (P04406 whole entry): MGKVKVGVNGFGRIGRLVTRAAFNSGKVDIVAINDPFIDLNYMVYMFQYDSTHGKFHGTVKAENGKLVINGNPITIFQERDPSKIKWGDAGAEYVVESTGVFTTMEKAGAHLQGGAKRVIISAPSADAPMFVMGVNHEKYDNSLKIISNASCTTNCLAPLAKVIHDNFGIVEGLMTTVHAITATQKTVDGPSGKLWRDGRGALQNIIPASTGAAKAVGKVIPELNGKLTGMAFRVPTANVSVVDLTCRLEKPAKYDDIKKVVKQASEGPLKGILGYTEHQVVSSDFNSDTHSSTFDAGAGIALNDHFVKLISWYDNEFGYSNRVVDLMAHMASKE

[9] = Vero E6 cell cytotoxicity, dose response, cytotoxicity control for non-replicating M. tuberculosis project, secondary assay (AID 492998); format: functional, VeroE6; settings: Vero C1008
cells = format: functional
[10] = blockers of HIV-1 envelope-mediated cell-cell fusion – cherry-pick, dose response (AID 652057); format: functional, cell-based
[11] = blockers of HIV-1 ZM109 envelope-driven cell-cell fusion – HeLa effector, CEM target cells, luciferase, cherry-pick, dose response (AID 652058); format: functional, cell-based;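 also: luciferase signal from HIV-1 Env mediated cell-cell fusion of effector and target cells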
[12] = off-target signal loss in HeLa-CEM21 co-culture – HeLa F-luc CTL cells, cherry-picked, counter-screen for HIV-1 Env fusion inhibitor project, dose response (AID 652040); format: functional, cell-based;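 also: potency for signal decrease marking cytotoxic or nonspecific inhibition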
[13] = HIV-1 AD8 envelope cell-cell fusion blockers – cherry-pick, dose response (AID 652062); format: functional, cell-based;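 also: luciferase signal from cell-cell fusion driven by HIV-1 clade B AD8 Env; potency is for inhibitors of fusion seen as a drop in luminescence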
[14] = Luminescence Cell-Based Dose Retest to Confirm Inhibitors of Cancer Stem Cells. [Related pubchem assays (depositor defined):AID2717, AID2721]; format: functional; settings: Homo sapiens
[15] = HEK-293T viability loss after treatment – luminescence, T-cell screen hits, cytotoxicity control for TCR NF-kB inhibitor project, dose response (AID 489026); format: functional, cell-based;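 also: cells exposed to compound about 14 hours before the viability readout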
[16] = molecular target: T2, Histone-lysine N-methyltransferase NSD2 (Homo sapiens, UniProt O96028); format: biochemical
T2 sequence (O96028 whole entry): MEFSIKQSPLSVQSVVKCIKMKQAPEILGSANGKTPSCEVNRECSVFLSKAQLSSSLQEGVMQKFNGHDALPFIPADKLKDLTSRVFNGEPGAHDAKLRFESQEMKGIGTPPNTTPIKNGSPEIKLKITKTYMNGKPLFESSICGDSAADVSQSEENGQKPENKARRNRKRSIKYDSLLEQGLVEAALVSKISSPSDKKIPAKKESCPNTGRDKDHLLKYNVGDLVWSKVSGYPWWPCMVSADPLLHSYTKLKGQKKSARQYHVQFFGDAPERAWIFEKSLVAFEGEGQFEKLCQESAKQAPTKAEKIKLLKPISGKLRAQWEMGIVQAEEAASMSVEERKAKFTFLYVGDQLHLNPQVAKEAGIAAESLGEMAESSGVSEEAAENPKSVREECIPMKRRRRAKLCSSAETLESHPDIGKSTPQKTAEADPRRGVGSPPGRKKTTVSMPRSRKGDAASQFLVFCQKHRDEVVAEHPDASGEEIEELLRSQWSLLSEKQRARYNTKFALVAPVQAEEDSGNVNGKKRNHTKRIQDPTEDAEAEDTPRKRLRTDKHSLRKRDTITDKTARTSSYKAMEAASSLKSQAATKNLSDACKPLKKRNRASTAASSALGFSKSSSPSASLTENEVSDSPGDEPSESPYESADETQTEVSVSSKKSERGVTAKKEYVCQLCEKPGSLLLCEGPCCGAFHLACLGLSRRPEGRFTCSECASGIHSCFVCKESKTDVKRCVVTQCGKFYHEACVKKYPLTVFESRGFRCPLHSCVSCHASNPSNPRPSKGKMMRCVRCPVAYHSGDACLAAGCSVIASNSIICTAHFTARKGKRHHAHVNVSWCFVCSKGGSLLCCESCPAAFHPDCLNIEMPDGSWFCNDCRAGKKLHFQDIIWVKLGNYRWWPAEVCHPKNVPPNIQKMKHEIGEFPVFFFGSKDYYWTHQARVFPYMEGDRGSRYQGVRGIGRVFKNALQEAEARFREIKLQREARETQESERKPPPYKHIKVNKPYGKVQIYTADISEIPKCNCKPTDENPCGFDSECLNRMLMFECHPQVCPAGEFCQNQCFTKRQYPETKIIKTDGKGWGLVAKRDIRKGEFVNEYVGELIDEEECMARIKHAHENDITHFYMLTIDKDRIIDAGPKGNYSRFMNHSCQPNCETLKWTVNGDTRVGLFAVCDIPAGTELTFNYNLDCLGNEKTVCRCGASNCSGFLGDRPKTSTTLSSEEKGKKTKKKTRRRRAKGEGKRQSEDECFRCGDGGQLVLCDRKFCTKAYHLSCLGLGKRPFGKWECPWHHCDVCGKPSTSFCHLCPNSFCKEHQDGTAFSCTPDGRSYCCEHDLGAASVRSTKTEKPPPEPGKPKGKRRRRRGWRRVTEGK

Cytochrome P450 2C9 = Cytochrome P450 2C9 (Homo sapiens, UniProt P11712)
Sequence of Cytochrome P450 2C9 (P11712 whole entry): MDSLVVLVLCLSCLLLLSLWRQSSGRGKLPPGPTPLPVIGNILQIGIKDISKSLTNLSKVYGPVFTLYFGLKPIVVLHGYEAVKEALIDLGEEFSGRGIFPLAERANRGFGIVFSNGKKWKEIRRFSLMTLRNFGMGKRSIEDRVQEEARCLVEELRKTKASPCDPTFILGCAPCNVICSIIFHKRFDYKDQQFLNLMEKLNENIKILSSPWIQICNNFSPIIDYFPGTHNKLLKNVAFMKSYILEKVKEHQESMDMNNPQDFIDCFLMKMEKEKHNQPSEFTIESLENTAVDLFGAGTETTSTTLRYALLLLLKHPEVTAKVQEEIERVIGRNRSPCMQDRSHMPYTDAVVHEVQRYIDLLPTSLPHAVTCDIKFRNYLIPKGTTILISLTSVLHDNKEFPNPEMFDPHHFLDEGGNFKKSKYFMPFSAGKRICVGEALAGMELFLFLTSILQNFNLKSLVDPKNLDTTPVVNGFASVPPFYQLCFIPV

[17] = Trypanosoma cruzi growth suppression in host cells – NIH3T3 host cells, beta-gal luminescence, confirmation (AID 2044); format: functional, cell-based;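 also: intracellular parasites grown in NIH/3T3 mouse fibroblasts as host cells; luminescent beta-galactosidase reporter signal from transgenic T. cruzi replicating inside host cells; inhibitors lower the luminescence signal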
[18] = NIH3T3 cell viability loss – ATP luminescence, mouse fibroblasts, counter-screen, dose response (AID 2010); format: functional, cell-based;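 also: cells exposed to compound for about 90 hours before reading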
[19] = molecular target: T3, Rac GTPase-activating protein 1 (Homo sapiens, UniProt Q9H0H5); test: blockers of MgcRacGAP-driven Rac1 GTP hydrolysis – biochemical, ADP Hunter fluorescence, primary and confirmatory, confirmation (AID 624330); format: functional
T3 sequence (Q9H0H5 whole entry): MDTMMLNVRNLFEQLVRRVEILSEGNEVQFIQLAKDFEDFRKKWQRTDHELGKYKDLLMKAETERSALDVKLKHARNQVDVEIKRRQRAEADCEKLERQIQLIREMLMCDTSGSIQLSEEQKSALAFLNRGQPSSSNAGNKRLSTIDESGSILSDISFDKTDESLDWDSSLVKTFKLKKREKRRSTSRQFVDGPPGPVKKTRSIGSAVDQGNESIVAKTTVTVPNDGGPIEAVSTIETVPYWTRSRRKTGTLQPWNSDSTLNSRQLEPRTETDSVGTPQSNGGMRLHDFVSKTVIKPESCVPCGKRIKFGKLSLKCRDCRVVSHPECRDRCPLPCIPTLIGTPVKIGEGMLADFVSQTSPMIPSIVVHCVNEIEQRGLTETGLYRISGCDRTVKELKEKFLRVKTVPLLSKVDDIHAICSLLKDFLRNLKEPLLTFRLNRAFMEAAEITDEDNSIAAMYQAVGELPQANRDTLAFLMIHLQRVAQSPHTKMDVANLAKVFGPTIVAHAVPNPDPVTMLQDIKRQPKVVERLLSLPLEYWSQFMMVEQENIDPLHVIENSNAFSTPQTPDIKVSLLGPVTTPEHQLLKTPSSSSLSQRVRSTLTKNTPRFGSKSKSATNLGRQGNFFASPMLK

Compound: Cc1ccc(S(=O)(=O)N(C)C[C@H]2Oc3ccc(NC(=O)c4ccncc4)cc3C(=O)N([C@@H](C)CO)C[C@@H]2C)cc1
- AC50 [1]: 8.41 µM (active)

Compound: CCOC(=O)N1CCC(NC(=O)C2CCCN(Cc3nc(-c4cccc(C)c4)oc3C)C2)CC1 (configuration not stated)
- AC50 [2]: 34.9 µM (active)
- AC50 [3]: 3.06 µM (active)
- AC50 [4]: 55.6 µM (active)
- AC50 [5]: 7.52 µM (active)

Compound: O=C(CSc1ccc(-c2ccccc2)nn1)Nc1ccc2c(c1)OCCO2
- EC50 [6]: 7.15 µM (active)
- EC50 [7]: 13.1 µM (active)
- EC50 (H4): > 120 µM (not active)

Compound: Cc1cccc2cc(/C=C3\N=C(c4ccccc4)OC3=O)c(N(C)C)nc12
- IC50 [8]: > 100 µM (not active)

Compound: Cc1cc(C)n2[nH]c(=O)c(N=Nc3cccc(Cl)c3)c2n1
- CC50 [9]: > 20 µM (active)
- IC50 (cells): 17.7 µM (active)

Compound: CC(C)(C)N1C(=O)[C@H]2[C@@H](c3ccc(Br)cc3)N3C(=O)N(c4cccc(Cl)c4)C(=O)[C@@]3(C)[C@H]2C1=O
- AC50 [10]: 464 nM (active)
- AC50 [11]: 542 nM (active)
- AC50 [12]: 843 nM (active)
- AC50 [13]: 3.2 µM (active)

Compound: N#Cc1ccc(-c2ccc3c(c2)[C@@H]2[C@@H](CCN2C(=O)C2CCC2)[C@@H](CO)N3)cc1
- AC50 [1]: 9.93 µM (active)

Compound: CC(=O)Nc1nnc(SCc2cccc3ccccc23)[nH]1
- IC50 [8]: > 100 µM (not active)

Compound: COc1cc(/C=C2/SC(=S)NC2=O)cc(Cl)c1OCc1ccc(Cl)cc1Cl
- IC50 [8]: > 100 µM (not active)

Compound: Cc1ccc(N2C(=O)c3[nH]nc(C)c3C2c2ccco2)cc1 (configuration not stated)
- EC50 [6]: > 120 µM (not active)
- EC50 [7]: 48.5 µM (active)
- EC50 (H4): 17.9 µM (inconclusive)

Compound: Cn1c(O)nc2cc3ccccc3cc21
- AC50 [10]: 1460 nM (active)
- AC50 [11]: 53300 nM (active)
- AC50 [12]: 717 nM (active)
- AC50 [13]: 4.99 µM (active)

Compound: CCN1C(=O)[C@H]2[C@H]3CN=C(SCc4ccc(Cl)cc4)N3[C@@](CC)(C(=O)OC)[C@H]2C1=O
- AC50 [10]: 3340 nM (active)
- AC50 [11]: 3370 nM (active)
- AC50 [12]: 3590 nM (active)
- AC50 [13]: 5.43 µM (active)

Compound: C=CCNC(=O)c1ccc(OC2CCN(S(=O)(=O)N(C)C)CC2)cc1
- EC50 [6]: 16.9 µM (active)
- EC50 [7]: 15.2 µM (active)
- EC50 (H4): 25.6 µM (active)

Compound: COc1cc(C)c(Cl)cc1S(=O)(=O)Nc1cccnc1
- IC50 [8]: > 10 µM (inconclusive)

Compound: COc1cccc(CC(CC(=O)O)C(=O)O)c1 (configuration not stated)
- IC50 [8]: > 100 µM (not active)

Compound: CC[C@@]1(C(=O)OC)N[C@H](CN(C)C(=O)Nc2ccc(C(F)(F)F)cc2)[C@@H]2C(=O)N(Cc3ccccc3)C(=O)[C@@H]21
- AC50 [10]: 336 nM (active)
- AC50 [11]: 604 nM (active)
- AC50 [12]: 740 nM (active)
- AC50 [13]: 1.21 µM (active)

Compound: Cc1cc2c(cc1C)C(c1ccccc1OC(C)C)CC(=O)N2 (configuration not stated)
- AC50 [14]: 796 nM (active)
- IC50 [15]: 62.2 µM (inactive)

Compound: O=C(NCc1cccs1)C1CCN(c2ccc(S(=O)(=O)N3CCOCC3)cc2Cl)CC1
- IC50 [15]: > 80 µM (inactive)

Compound: CN(C)c1cccc2c(S(=O)(=O)Nc3ccccn3)cccc12
- AC50 [16]: 15.3 µM (active)

Compound: Cn1c(-c2ccc3c(c2)OCO3)cnc1NCc1ccccc1
- EC50 [6]: 14.6 µM (active)
- EC50 [7]: 6.69 µM (active)
- EC50 (H4): 39.9 µM (active)
- AC50 (Cytochrome P450 2C9): 31.6 µM (inconclusive)

Compound: O=C(Nc1ccc(N2CCN(C(=O)c3ccc(Cl)cc3)CC2)cc1)c1ccc([N+](=O)[O-])o1
- EC50 [17]: 1.81 µM (active)
- EC50 [18]: 32.8 µM (active)
- AC50 [2]: 7.32 µM (active)

Compound: CCN(CC)CCNC(=O)c1c(C)[nH]c(/C=C2\C(=O)Nc3ccc(F)cc32)c1C
- AC50 [16]: > 20 µM (inactive)

Compound: C[C+](C)[N-]Oc1cc(NC(=O)CCl)cc([N+](=O)[O-])c1
- AC50 [2]: 6.18 µM (active)

Compound: COc1ccc(C)c(Cn2c(-c3nonc3N)nc3ccccc32)c1
- IC50 [15]: > 80 µM (inactive)

Compound: O=[N+]([O-])c1ccccc1Nc1ccc(O)cc1
- IC50 [19]: 22.6 µM (active)
- AC50 [16]: > 20 µM (inactive)

Compound: CC(C)N1C(=O)CC(Nc2ccc(N3CCOCC3)cc2)C1=O (configuration not stated)
- EC50 [6]: > 120 µM (not active)
- EC50 [7]: 29.1 µM (active)
- EC50 (H4): > 120 µM (not active)
